Laboratory results reported in US10329309B2, “3-(3H-imidazo[4,5-B]pyridin-2-yl)-1H-pyrazolo[4,3-B]pyridines and therapeutic uses thereof” (Samumed, LLC, priority 2015, dated 2019).

What was measured:
[1] = system: SW480 colon cancer cells; assay: Cell viability assay (CellTiter-Blue), four days; type: cell-based; details: Homo sapiens, 96 h; for EC50: CellTiter-Blue cell viability; for inhibition at 10 µM: read-out: percent inhibition at 10 μM (given for EC50 of >10 μM)
In short: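 4-day exposure, 37 °C/5% CO2; ~2×10^3 SW480 cells/well; 8-pt 1:3 curve, 10–0.0045 μM, duplicates vs DMSO controls. Resazurin→resorufin fluorescence readout, ~3 h. EC50 by nonlinear fit; if >10 μM, % inhibition at 10 μM reported.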

[2] = system: IL-6 (THP-1 cells); assay: Inhibition of IL-6 in LPS-stimulated THP-1 monocytes (HTRF); type: cell-based; details: Homo sapiens; for EC50: LPS 500 ng/mL, IL-6 by HTRF; for inhibition at 10 µM: LPS stimulated, IL-6, at 10 μM, read-out: percent inhibition at 10 μM (given for EC50 of >10 μM)
In short: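 IL-6 release was read as the HTRF 665/620 nm ratio after 22 h of 500 ng/mL LPS at 37 °C. Before stimulation, THP-1 cells kept 24 h in 1% FBS were exposed 2 h to a 10-point 1:3 compound series starting at 10 μM, in 0.1% DMSO. Four-parameter EC50s came from DMSO-normalized duplicates, with % inhibition at 10 μM reported beyond 10 μM.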

Row | SMILES | EC50 [1] | inhibition at 10 µM [1] | EC50 [2] | inhibition at 10 µM [2]
1 | c1ccc(COc2cncc(-c3ccc4[nH]nc(-c5nc6c(-c7ccncc7)ccnc6[nH]5)c4n3)c2)cc1 [Compound 582, 5-(5-(Benzyloxy)pyridin-3-yl)-3-(7-(pyridin-4-yl)-3H-imidazo[4,5-b]pyridin-2-yl)-1H-pyrazolo[4,3-b]pyridine] | > 10 µM | 2.6% | > 10 µM | 3.2%
2 | CN1CCN(c2ccnc3[nH]c(-c4n[nH]c5ccc(-c6cnccn6)nc45)nc23)CC1 [Compound 648, 3-(7-(4-Methylpiperazin-1-yl)-3H-imidazo[4,5-b]pyridin-2-yl)-5-(pyrazin-2-yl)-1H-pyrazolo[4,3-b]pyridine] | 3.91 µM | – | > 10 µM | 9.9%
3 | CC(C)(C)CC(=O)Nc1cncc(-c2ccc3[nH]nc(-c4nc5cccnc5[nH]4)c3n2)c1 [Compound 268, N-(5-(3-(3H-Imidazo[4,5-b]pyridin-2-yl)-1H-pyrazolo[4,3-b]pyridin-5-yl)pyridin-3-yl)-3,3-dimethylbutanamide] | > 10 µM | 0% | > 10 µM | 32.5%
4 | Cc1cn(-c2ccnc3[nH]c(-c4n[nH]c5ccc(C6=CCNCC6)nc45)nc23)cn1 [Compound 618, 3-(7-(4-Methyl-1H-imidazol-1-yl)-3H-imidazo[4,5-b]pyridin-2-yl)-5-(1,2,3,6-tetrahydropyridin-4-yl)-1H-pyrazolo[4,3-b]pyridine] | > 10 µM | 2.8% | 1.55 µM | –
5 | O=C(Nc1cncc(-c2ccc3[nH]nc(-c4nc5c(-c6cccc(F)c6)ccnc5[nH]4)c3n2)c1)C1CC1 [Compound 20, N-(5-(3-(7-(3-Fluorophenyl)-3H-imidazo[4,5-b]pyridin-2-yl)-1H-pyrazolo [4,3-b]pyridin-5-yl)pyridin-3-yl)cyclopropanecarboxamide] | > 10 µM | 2.8% | > 10 µM | 16%
6 | Cc1cn(-c2ccnc3[nH]c(-c4n[nH]c5ccc(-c6cncc(OCCN(C)C)c6)nc45)nc23)cn1 [Compound 627, N,N-Dimethyl-2-((5-(3-(7-(4-methyl-1H-imidazol-1-yl)-3H-imidazo[4,5-b]pyridin-2-yl)-1H-pyrazolo[4,3-b]pyridin-5-yl)pyridin-3-yl)oxy)ethan-1-amine] | > 10 µM | 14.8% | 0.404 µM | –
7 | Cn1cc(-c2ccc3[nH]nc(-c4nc5c(-c6cc(F)cc(CNS(C)(=O)=O)c6)ccnc5[nH]4)c3n2)cn1 [Compound 764, N-(3-Fluoro-5-(2-(5-(1-methyl-1H-pyrazol-4-yl)-1H-pyrazolo[4,3-b]pyridin-3-yl)-3H-imidazo[4,5-b]pyridin-7-yl)benzyl)methanesulfonamide] | > 10 µM | 0% | > 10 µM | 24.2%
8 | c1cncc(-c2ccnc3[nH]c(-c4n[nH]c5ccc(-c6cncc(OC7CCCCC7)c6)nc45)nc23)c1 [Compound 559, 5-(5-(Cyclohexyloxy)pyridin-3-yl)-3-(7-(pyridin-3-yl)-3H-imidazo[4,5-b]pyridin-2-yl)-1H-pyrazolo[4,3-b]pyridine] | > 10 µM | 4% | > 10 µM | 31.6%
9 | Cc1ccc(-c2ccnc3[nH]c(-c4n[nH]c5ccc(-c6cncc(NC(=O)C7CCCC7)c6)nc45)nc23)s1 [Compound 414, N-(5-(3-(7-(5-Methylthiophen-2-yl)-3H-imidazo[4,5-b]pyridin-2-yl)-1H-pyrazolo[4,3-b]pyridin-5-yl)pyridin-3-yl)cyclopentanecarboxamide] | > 10 µM | 14.7% | 1.85 µM | –
10 | Cn1cc(-c2ccc3[nH]nc(-c4nc5c(-c6cccs6)ccnc5[nH]4)c3n2)cn1 [Compound 700, 5-(1-Methyl-1H-pyrazol-4-yl)-3-(7-(thiophen-2-yl)-3H-imidazo[4,5-b]pyridin-2-yl)-1H-pyrazolo[4,3-b]pyridine] | > 10 µM | 0.1% | > 10 µM | 0%
11 | CN(C)CCNc1cc(F)cc(-c2ccnc3[nH]c(-c4n[nH]c5ccc(-c6ccccn6)nc45)nc23)c1 [Compound 476, N^1-(3-Fluoro-5-(2-(5-(pyridin-2-yl)-1H-pyrazolo[4,3-b]pyridin-3-yl)-3H-imidazo[4,5-b]pyridin-7-yl)phenyl)-N^2,N^2-dimethylethane-1,2-diamine] | 9.02 µM | – | > 10 µM | 33%
12 | CN1CCN(c2ccnc3[nH]c(-c4n[nH]c5ccc(-c6cncc(OC7CCCCC7)c6)nc45)nc23)CC1 [Compound 639, 5-(5-(Cyclohexyloxy)pyridin-3-yl)-3-(7-(4-methylpiperazin-1-yl)-3H-imidazo[4,5-b]pyridin-2-yl)-1H-pyrazolo[4,3-b]pyridine] | 5.85 µM | – | > 10 µM | 33.5%
13 | CS(=O)(=O)NCc1cc(F)cc(-c2ccnc3[nH]c(-c4n[nH]c5ccc(-c6cncnc6)nc45)nc23)c1 [Compound 503, N-(3-Fluoro-5-(2-(5-(pyrimidin-5-yl)-1H-pyrazolo[4,3-b]pyridin-3-yl)-3H-imidazo[4,5-b]pyridin-7-yl)benzyl)methanesulfonamide] | > 10 µM | 0.9% | > 10 µM | 29.6%
14 | c1cc(-c2ccoc2)c2nc(-c3n[nH]c4ccc(-c5cncc(OCCN6CCCC6)c5)nc34)[nH]c2n1 [Compound 690, 3-(7-(Furan-3-yl)-3H-imidazo[4,5-b]pyridin-2-yl)-5-(5-(2-(pyrrolidin-1-yl)ethoxy)pyridin-3-yl)-1H-pyrazolo[4,3-b]pyridine] | > 10 µM | 26.6% | > 10 µM | 42.9%
15 | Cn1cc(-c2ccc3[nH]nc(-c4nc5c(-c6ccc(F)cc6)ccnc5[nH]4)c3n2)c(CO)n1 [Compound 1129, (4-(3-(7-(4-Fluorophenyl)-3H-imidazo[4,5-b]pyridin-2-yl)-1H-pyrazolo[4,3-b]pyridin-5-yl)-1-methyl-1H-pyrazol-3-yl)methanol] | > 10 µM | 16.9% | > 10 µM | 24.8%
16 | O=C(CC1CCNCC1)Nc1cncc(-c2ccc3[nH]nc(-c4nc5c(-c6ccsc6)ccnc5[nH]4)c3n2)c1 [Compound 673, 2-(Piperidin-4-yl)-N-(5-(3-(7-(thiophen-3-yl)-3H-imidazo[4,5-b]pyridin-2-yl)-1H-pyrazolo[4,3-b]pyridin-5-yl)pyridin-3-yl)acetamide] | > 10 µM | 0.6% | > 10 µM | 35.9%
17 | COc1cncc(-c2ccc3[nH]nc(-c4nc5c(-c6ccoc6)ccnc5[nH]4)c3n2)c1 [Compound 692, 3-(7-(Furan-3-yl)-3H-imidazo[4,5-b]pyridin-2-yl)-5-(5-methoxypyridin-3-yl)-1H-pyrazolo[4,3-b]pyridine] | > 10 µM | 17.6% | > 10 µM | 39%
18 | CS(=O)(=O)NCc1cc(F)cc(-c2ccnc3[nH]c(-c4n[nH]c5ccc(-c6cncc(NC(=O)CC7CCNCC7)c6)nc45)nc23)c1 [Compound 769, N-(5-(3-(7-(3-Fluoro-5-(methylsulfonamidomethyl)phenyl)-3H-imidazo[4,5-b]pyridin-2-yl)-1H-pyrazolo[4,3-b]pyridin-5-yl)pyridin-3-yl)-2-(piperidin-4-yl)acetamide] | > 10 µM | 8.5% | 0.036 µM | –
19 | c1cnc2[nH]c(-c3n[nH]c4ccc(-c5cncc(OC6CCNCC6)c5)nc34)nc2c1 [Compound 656, 3-(3H-Imidazo[4,5-b]pyridin-2-yl)-5-(5-(piperidin-4-yloxy)pyridin-3-yl)-1H-pyrazolo[4,3-b]pyridine] | > 10 µM | 11.4% | 7.6 µM | –
20 | Cn1cc(-c2ccc3[nH]nc(-c4nc5c(-c6ccc7c(c6)OCO7)ccnc5[nH]4)c3n2)c(CO)n1 [Compound 1152, (4-(3-(7-(Benzo[d][1,3]dioxol-5-yl)-3H-imidazo[4,5-b]pyridin-2-yl)-1H-pyrazolo[4,3-b]pyridin-5-yl)-1-methyl-1H-pyrazol-3-yl)methanol] | > 10 µM | 28.2% | > 10 µM | 28.4%
21 | c1cc(-c2ccc3c(c2)OCO3)c2nc(-c3n[nH]c4ccc(C5CCNCC5)nc34)[nH]c2n1 [Compound 1108, 3-(7-(Benzo[d][1,3]dioxol-5-yl)-3H-imidazo[4,5-b]pyridin-2-yl)-5-(piperidin-4-yl)-1H-pyrazolo[4,3-b]pyridine] | > 10 µM | 0% | > 10 µM | 30.1%
22 | Cn1cc(-c2ccc3[nH]nc(-c4nc5c(N6CCCCC6)ccnc5[nH]4)c3n2)c(CO)n1 [Compound 1134, (1-Methyl-4-(3-(7-(piperidin-1-yl)-3H-imidazo[4,5-b]pyridin-2-yl)-1H-pyrazolo[4,3-b]pyridin-5-yl)-1H-pyrazol-3-yl)methanol] | > 10 µM | 18.1% | > 10 µM | 12.6%
23 | CN(C)CCNc1cc(F)cc(-c2ccnc3[nH]c(-c4n[nH]c5ccc(-c6cnccn6)nc45)nc23)c1 [Compound 792, N^1-(3-Fluoro-5-(2-(5-(pyrazin-2-yl)-1H-pyrazolo[4,3-b]pyridin-3-yl)-3H-imidazo[4,5-b]pyridin-7-yl)phenyl)-N^2,N^2-dimethylethane-1,2-diamine] | 4.37 µM | – | > 10 µM | 23.3%
